# Experimental data: PubChem BioAssay AID1208 (EPA DSSTox, 2008)
# The source made the active and inactive calls.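 Rule for the calls: active = at least one rat sex group has a carcinogenic potency value and tumor site recorded; inconclusive = only rat studies were judged inadequate by the national testing program; inactive = no potency or tumor site, with negative rat experiments.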
# System: rat chronic carcinogenicity bioassay, TD50
# Assay: DSSTox (CPDBAS) Carcinogenic Potency Database Summary Rat Bioassay Results
# Settings: for outcome: TD50_Rat_Note: no positive results; for Potency: stronger effect = lower value
# Outline: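 The activity score maps log10(1/TD50_Rat_mmol) linearly onto 1–100; actives without a computed TD50, such as mixtures, receive 50. Source data are chronic rat carcinogenicity tests, using the most positive experiment for each sex.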
# [1] = TargetSites_Rat_Female: no positive results
# [2] = TD50_Rat_Note: TD50 is harmonic mean of more than one positive test, TargetSites_Rat_Female: liver
# [3] = TD50_Rat_Note: TD50 is harmonic mean of more than one positive test, TargetSites_Rat_Female: stomach
# [4] = TargetSites_Rat_Female: mammary gland
# [5] = TD50_Rat_Note: TD50 is harmonic mean of more than one positive test, TargetSites_Rat_Female: adrenal gland
smiles,measurement,setting,value
O.O=S(=O)([O-])[O-].[Mn+2],outcome,[1],inactive; no positive results
O=C(O)c1ccccc1,outcome,,inactive; no positive results
same,outcome,[1],inactive; no positive results
NC1=NC(=O)C(c2ccccc2)O1 (stereo not given),outcome,[1],inactive
Cc1ccc2c(c1[N+](=O)[O-])C(=O)c1ccccc1C2=O,Potency,[2],84.8 mg/kg/day
O=C(O)CN(CCN(CC(=O)O)CC(=O)O)CC(=O)O,outcome,[1],inactive; no positive results
Oc1ccccc1-c1ccccc1,Potency,"TD50_Rat_Note: TD50 is harmonic mean of more than one positive test, greater than ten-fold variation among TD50 values for positive res, TargetSites_Rat_Female: urinary bladder",672 mg/kg/day
same,Potency,,232 mg/kg/day
Cn1nc(CO)nc1NCCCOc1cccc(CN2CCCCC2)c1,Potency,[3],479 mg/kg/day
FC(F)(F)CCl,Potency,"TD50_Rat_Note: TD50 is harmonic mean of more than one positive test, TargetSites_Rat_Female: uterus",87.3 mg/kg/day
CC/C(C)=N/O,Potency,[1],74.5 mg/kg/day
O=C(CCl)c1ccccc1,outcome,[1],inactive; no positive results
CNCc1ccc(CSCCNC(=NCC(O)c2ccc(O)cc2)NS(C)(=O)=O)o1 (stereo not given),outcome,[1],inactive; no positive results
C=CBr,Potency,"TD50_Rat_Note: TD50 is harmonic mean of more than one positive test, TargetSites_Rat_Female: ear Zymbals gland, liver, vascular system",18.5 mg/kg/day
CC1CCC(C(C)C)C(O)C1 (stereo not given),outcome,[1],inactive; no positive results
CC(=O)Nc1nc(NC(C)=O)nc(-c2ccc([N+](=O)[O-])o2)n1,Potency,[4],14.1 mg/kg/day
O=c1[nH]nc(-c2ccc([N+](=O)[O-])o2)o1,Potency,TargetSites_Rat_Female: all tumor bearing animals,8.61 mg/kg/day
C1CCCNCCC1,outcome,[1],inactive; no positive results
NCC1(CC(=O)O)CCCCC1,Potency,[1],5850 mg/kg/day
ClCc1ccccn1,outcome,[1],inactive; no positive results
S=C=NCCc1ccccc1,outcome,,inactive; no positive results
Cc1ccc2c(c1N)C(=O)c1ccccc1C2=O,Potency,[2],59.2 mg/kg/day
O=C1C2(Cl)C3(Cl)C4(Cl)C(Cl)(Cl)C5(Cl)C3(Cl)C1(Cl)C5(Cl)C24Cl (stereo not given),Potency,TargetSites_Rat_Female: liver,2.96 mg/kg/day
Nc1ccccc1N,Potency,,248 mg/kg/day
CN(C)CCC(c1ccc(Cl)cc1)c1ccccn1 (stereo not given),outcome,[1],inactive; no positive results
O[C@@H]([C@H](O)[C@@H](O)CBr)[C@@H](O)CBr,Potency,"TD50_Rat_Note: positive test results only by intraperitoneal or intravenous injection, TD50 is harmonic mean of more than one positive, TargetSites_Rat_Female: mammary gland, peritoneal cavity",27.6 mg/kg/day
C/C=C(/C)C(=O)O[C@H]1CCN2CC=C(COC(=O)[C@](O)([C@H](C)OC)C(C)(C)O)[C@H]12,Potency,"TD50_Rat_Note: TD50 is harmonic mean of more than one positive test, TargetSites_Rat_Female: hematopoietic system, liver, vascular system",0.389 mg/kg/day
CC/C(=C(/CC)c1ccc(O)cc1)c1ccc(O)cc1,Potency,"TD50_Rat_Note: TD50 is harmonic mean of more than one positive test, greater than ten-fold variation among TD50 values for positive res, TargetSites_Rat_Female: liver, pituitary gland",0.223 mg/kg/day
OCCOCCOCCO,outcome,,inactive; no positive results
NNc1nc(-c2ccc([N+](=O)[O-])o2)cs1,Potency,"TD50_Rat_Note: TD50 is harmonic mean of more than one positive test, TargetSites_Rat_Female: kidney, mammary gland",3.19 mg/kg/day
Nc1ncn([C@@H]2O[C@H](CO)[C@@H](O)[C@H]2O)c(=O)n1,Potency,"TD50_Rat_Note: positive test results only by intraperitoneal or intravenous injection, TargetSites_Rat_Female: NTP bioassay inadequate",0.17 mg/kg/day
O=NN1CCCCC1C(=O)O (stereo not given),outcome,[1],inactive; no positive results
CC1(C)C(=O)Nc2ccc(C3=NNC(=O)CC3)cc21,Potency,[5],2.01 mg/kg/day
C=CC(=C)Cl,Potency,"TD50_Rat_Note: TD50 is harmonic mean of more than one positive test, TargetSites_Rat_Female: kidney, mammary gland, oral cavity, thyroid gland",12.5 mg/kg/day
same,outcome,[1],inactive; no positive results
ClC#CCl,Potency,"TD50_Rat_Note: TD50 is harmonic mean of more than one positive test, TargetSites_Rat_Female: hematopoietic system, kidney, liver",3.58 mg/kg/day
CN(N=O)C(=O)NCCC[C@H](N)C(=O)O,Potency,"TD50_Rat_Note: positive test results only by intraperitoneal or intravenous injection, TD50 is harmonic mean of more than one positive, TargetSites_Rat_Female: kidney, mammary gland, pancreas, skin",0.787 mg/kg/day
CN(CCO)N=O,Potency,,1.29 mg/kg/day
CC1=C(C)C(=O)C(C(CCCCCC(=O)O)c2ccccc2)=C(C)C1=O (stereo not given),outcome,[1],inactive; no positive results
O=NN1CCC[C@H]1C(=O)O,outcome,[1],inactive; no positive results
C/C=C/C=O,Potency,,4.2 mg/kg/day
Nc1ccc(-c2ccccc2)cc1,Potency,[4],0.98 mg/kg/day
NN,Potency,"TD50_Rat_Note: TD50 is harmonic mean of more than one positive test, greater than ten-fold variation among TD50 values for positive res, TargetSites_Rat_Female: liver, lung, nasal cavity",0.613 mg/kg/day
CC1(C)[C@H](C(=O)O[C@H](C#N)c2cccc(Oc3ccccc3)c2)[C@@H]1C=C(Br)Br,outcome,[1],inactive; no positive results
OC[C@@H](O)[C@@H](O)[C@H](O)[C@H](O)CO,outcome,[1],inactive; no positive results
OC[C@H]1O[C@@H]2O[C@H]3[C@H](O)[C@@H](O)[C@@H](O[C@H]4[C@H](O)[C@@H](O)[C@@H](O[C@H]5[C@H](O)[C@@H](O)[C@@H](O[C@H]6[C@H](O)[C@@H](O)[C@@H](O[C@H]7[C@H](O)[C@@H](O)[C@@H](O[C@H]8[C@H](O)[C@@H](O)[C@@H](O[C@H]1[C@H](O)[C@H]2O)O[C@@H]8CO)O[C@@H]7CO)O[C@@H]6CO)O[C@@H]5CO)O[C@@H]4CO)O[C@@H]3CO,outcome,[1],inactive; no positive results
CNC(=O)Oc1cccc2ccccc12,Potency,TargetSites_Rat_BothSexes: all tumor bearing animals,14.1 mg/kg/day
N=C1C=CC(=C(c2ccc(N)cc2)c2ccc(N)cc2)C=C1,Potency,"TD50_Rat_Note: TD50 is harmonic mean of more than one positive test, TargetSites_Rat_Female: ear Zymbals gland, subcutaneous tissue, thyroid gland",39.4 mg/kg/day
CN(C)Nc1nc(-c2ccc([N+](=O)[O-])o2)cs1,Potency,"TD50_Rat_Note: harmonic mean of TD50 includes a value for upper 99% confidence limit from study with 100% tumor incidence but no lifeta, TargetSites_Rat_Female: hematopoietic system, mammary gland",0.41 mg/kg/day
CC(C)CN(N=O)C(N)=O,Potency,TargetSites_Rat_Female: small intestine,4.73 mg/kg/day
CC[C@H](C)C(=O)O[C@H]1C[C@@H](C)C=C2C=C[C@H](C)[C@H](CC[C@@H]3C[C@@H](O)CC(=O)O3)[C@H]21,outcome,[1],inactive; no positive results
NC(=O)CCCCn1ccc(NC(N)=NCC(F)(F)F)n1,Potency,[3],1170 mg/kg/day
O=C(O)CCCc1ccc(N(CCCl)CCCl)cc1,Potency,"TD50_Rat_Note: TD50 is harmonic mean of more than one positive test, TargetSites_Rat_Female: ear Zymbals gland, mammary gland, nervous system",0.896 mg/kg/day
Cc1ccc(N)cc1N,Potency,"TD50_Rat_Note: TD50 is harmonic mean of more than one positive test, TargetSites_Rat_Female: liver, mammary gland",2.47 mg/kg/day
same,Potency,,4.42 mg/kg/day
C=CC1=C(C)C2=CC3=NC(=C(CC(=O)[O-])C4=NC(=C(C)C4=C([O-])[O-])C=c4[n-]c(c(C)c4CC)=CC1=N2)[C@@H](CCC(=O)[O-])[C@@H]3C.[Cu+2].[Na+].[Na+].[Na+],outcome,[1],inactive; no positive results
Cc1cc2c(nc1N)[nH]c1ccccc12,Potency,,6.7 mg/kg/day
CC(=O)C(N=Nc1ccc(-c2ccc(N=NC(C(C)=O)C(=O)Nc3ccccc3)c(Cl)c2)cc1Cl)C(=O)Nc1ccccc1 (stereo not given),outcome,[1],inactive; no positive results
CCCCNC(=O)NS(=O)(=O)c1ccc(C)cc1,outcome,[1],inactive; no positive results
CC(=O)CN(N=O)C(=O)NCCCl,outcome,[1],inactive; no positive results
CCCc1cc(=O)[nH]c(=S)[nH]1,Potency,"TD50_Rat_Note: TD50 is harmonic mean of more than one positive test, TargetSites_Rat_Female: thyroid gland",13.7 mg/kg/day
C=C(F)F,outcome,[1],inactive; no positive results
O=NN1CCOC1=O,Potency,"TD50_Rat_Note: TD50 is harmonic mean of more than one positive test, harmonic mean of TD50 includes a value for upper 99% confidence li",0.385 mg/kg/day
CN(C)CCN(Cc1cccs1)c1ccccn1,Potency,[2],9.13 mg/kg/day
C=CC(=O)O,outcome,[1],inactive; no positive results
Nc1cnn([C@@H]2O[C@H](CO)[C@@H](O)[C@H]2O)c(=O)n1,outcome,,inactive; no positive results
COc1c2occc2cc2ccc(=O)oc12,Potency,[1],32.4 mg/kg/day
Cc1nnc2n1-c1sc(CCc3ccc(CC(C)C)cc3)cc1C(c1ccccc1Cl)=NC2C (stereo not given),outcome,[1],inactive; no positive results
CCN(CC)C(=S)SSC(=S)N(CC)CC,outcome,[1],inactive; no positive results
CCCc1ccc2c(c1)OCO2,Potency,TargetSites_Rat_BothSexes: esophagus,143 mg/kg/day
CC(Cl)(Cl)Cl,outcome,[1],inactive; no positive results
CCc1ccc(C(c2ccc(CC)cc2)C(Cl)Cl)cc1,outcome,[1],inactive; no positive results
NC(Cc1ccc(O)c(O)c1)C(=O)O (stereo not given),outcome,,inactive; no positive results
O=C1OC(c2ccc(O)cc2)(c2ccc(O)cc2)c2ccccc21,Potency,[5],902 mg/kg/day
COc1ccc([N+](=O)[O-])cc1N,Potency,"TD50_Rat_Note: TD50 is harmonic mean of more than one positive test, TargetSites_Rat_Female: clitoral gland, skin",53.9 mg/kg/day
CC(C)O,outcome,[1],inactive; no positive results
ClCc1ccccc1,outcome,[1],inactive; no positive results
CCn1c2ccccc2c2cc(N)ccc21,Potency,"TD50_Rat_Note: TD50 is harmonic mean of more than one positive test, TD50_Rat_mmol was not calculated for this mixture, but Activiity S, TargetSites_Rat_Female: ear Zymbals gland",26.4 mg/kg/day
same,Potency,"TD50_Rat_Note: TD50 is harmonic mean of more than one positive test, TargetSites_Rat_Female: ear Zymbals gland, liver, uterus",57.2 mg/kg/day
C#C[C@]1(O)CC[C@H]2[C@@H]3CCc4cc(O)ccc4[C@H]3CC[C@@]21C,Potency,TargetSites_Rat_Female: liver,0.2 mg/kg/day
COP(=S)(OC)Oc1ccc([N+](=O)[O-])cc1,outcome,[1],inactive; no positive results
CCCCC/C=C\C/C=C\CCCCCCCC(=O)OC,outcome,,inactive; no positive results
CN1C(=O)C[C@@H](C(=O)N[C@@H](Cc2cnc[nH]2)C(=O)N2CCC[C@H]2C(N)=O)NC1=O,outcome,[1],inactive; no positive results
O=C1CN=C(c2ccccc2)c2cc(Cl)ccc2N1CC1CC1,outcome,[1],inactive; no positive results
COc1ccccc1N,Potency,"TD50_Rat_Note: TD50 is harmonic mean of more than one positive test, TargetSites_Rat_Female: urinary bladder",29.7 mg/kg/day
